Measurements as given in ChEMBL document CHEMBL6087385, “Synthesis and biological evaluation of Ribo 7-N/O/S pyrimidine 9-deaza C-nucleoside analogs as new antiviral agents for inhibiting HCV RNA-dependent RNA polymerases” (Eur J Med Chem, 2024).

Tests used:
[1] = Half life in Sprague-Dawley rat at 1 mg/kg, iv by reverse phase chromatography; format: ADME, organism-based; conditions: in vivo
[2] = Volume of distribution in Cynomolgus monkey at 1 mg/kg, iv by reverse phase chromatography; format: ADME, organism-based, Macaca fascicularis; conditions: in vivo
[3] = Tmax in female mouse at 5 mg/kg, po by reverse phase chromatography; format: ADME, organism-based; conditions: in vivo
[4] = Toxicity in Cynomolgus monkey assessed as emesis at 100 mg/kg, po administered as single dose; format: organism-based, Macaca fascicularis; conditions: in vivo
[5] = Cmax in Sprague-Dawley rat at 10 mg/kg, po by reverse phase chromatography; format: ADME, organism-based; conditions: in vivo
[6] = Tmax in Cynomolgus monkey at 10 mg/kg, po administered for 7 days by reverse phase chromatography; format: ADME, organism-based, Macaca fascicularis; conditions: in vivo, time 7 day

C[C@@]1(O)[C@H](O)[C@@H](CO)O[C@H]1c1coc2c(N)ncnc12
half-life [1]: 1700 min
Vd [2]: 8.67 L/kg
Tmax [3]: 30 min
Activity [4]: Non-toxic
Cmax [5]: 1180 ng/mL
Tmax [6]: 42 min
